For test [1], the target named is T1, alcohol dehydrogenase (ADH) (Saccharomyces cerevisiae, UniProt P00330).
T1 construct: 10 μl of ADH from Bakers Yeast; host or cells: baker's yeast
T1 sequence (P00330 1-348): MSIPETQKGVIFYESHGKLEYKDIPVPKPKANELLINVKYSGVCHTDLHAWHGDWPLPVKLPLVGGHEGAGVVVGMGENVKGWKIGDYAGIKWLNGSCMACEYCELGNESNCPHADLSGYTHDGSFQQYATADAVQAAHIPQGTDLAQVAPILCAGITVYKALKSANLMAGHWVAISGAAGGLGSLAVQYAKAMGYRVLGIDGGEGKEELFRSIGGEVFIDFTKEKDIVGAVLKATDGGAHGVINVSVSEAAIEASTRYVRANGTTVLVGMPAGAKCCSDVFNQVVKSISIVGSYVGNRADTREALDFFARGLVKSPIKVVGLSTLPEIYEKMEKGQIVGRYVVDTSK
As to the kind of experiment: ADH kinetic assay, spectrophotometric reduction of NAD+ at 340 nm. The class given is biochemical, Bakers Yeast. The protocol:
For ADH analysis, the compounds were screened using a kinetic protocol that spectrophotometrically evaluates reduction of NAD+.
Stock solutions of each of the reagents were prepared in the following concentrations. Dilutions of the stock solutions were prepared prior to running the assay in the concentrations indicated below.
The ADH reaction was monitored at 340 nm prior to and after addition of the inhibitor to detect background reaction with the inhibitor. Solutions of 100 μl of the inhibitors in DMSO were prepared to provide a final DMSO concentration of 5% of the total assay volume. These solutions were incubated for 6 minutes at 25° C. in a 990 μl of a solution containing 0.1 M HEPES, pH 8.0, 80 μM NAD+, and 130 mM of ethanol. The reaction was then initiated with 10 μl of ADH from Bakers Yeast ([…]; 1:400 dilution of 1.0 mg/ml). After the enzyme was added, the solution was mixed for 20 seconds, and the reaction was run for 10 minutes. After a 50 second lag, the samples were read in a Cary spectrophotometer at 340 nm. Reading of the samples was continued until 300 seconds. Cuvette #1 contained the control reaction (no inhibitor), and cuvette #2 contained the positive control reaction in which Cibacron Blue at 15.5 μM was substituted for inhibitor to yield 50 to 60% inhibition. The substrate was kept at a level at least 10 times the Km. The final concentration of […] was about 2.5 mM.
Where only a simple read was desired, as in the case of NAD+ concentration determination, 13 μl (10 M stock) of ethanol was used to drive the reaction, and 10 μl of pure enzyme (1 mg/ml) was used. NAD+was soluble at 2 mM, which allowed the concentration determination step to be skipped. In this situation, the procedure was as follows. All of the ingredients except for the enzyme were mixed together. The solution was mixed well and the absorbance at 340 nm read. The enzyme was added and read again at OD 340 after the absorbance stopped changing, generally 10 to 15 minutes after the enzyme was added.

Test [2] addresses dihydrofolate reductase (DHFR) (UniProt P00374). As to the kind of experiment: DHFR kinetic assay, spectrophotometric oxidation of NADH at 340 nm. The class given is biochemical. The method, then: For DHFR analysis, the compounds were screened using a kinetic protocol that spectrophotometrically evaluates oxidation of NADH.
Stock solutions of each of the reagents were prepared in the following concentrations. Dilutions of the stock solutions were prepared prior to running the assay in the concentrations indicated below. H2 folate was dissolved in DMSO to about 10 mM and then diluted with water to a concentration of 0.1 mM.
The DHFR reaction was monitored at 340 nm prior to and after addition of the inhibitor to detect background reaction with the inhibitor. Solutions of 100 μl of the inhibitors in DMSO were prepared to provide a final DMSO concentration of 5% of the total assay volume. These solutions were incubated for 6 minutes at 25° C. in a 992 μl of a solution containing 0.1 M Tris-HCl, pH 7.0, 150 mM KCl, 5 μM H2 folate, and 52 μM NADH. The oxidation reaction was then initiated with 8 μl of DHFR (0.047 mg/ml). After the enzyme was added, the solution was mixed for 20 seconds, and the reaction was run for 10 minutes. After a 50 second lag, the samples were read in a Cary spectrophotometer at 340 nm. Reading of the samples was continued until 300 seconds. Cuvette #1 always contained the control reaction (no inhibitor), and cuvette #2 always contained the positive control reaction in which Cibacron Blue at 3 μM was substituted for inhibitor to yield 50 to 70% inhibition. […]

Test [3] has as its target 1-deoxy-D-xylulose-5-phosphate reductase (DOXPR) (Escherichia coli, UniProt P45568). The experiment in a line: DOXPR kinetic assay, spectrophotometric oxidation of NADPH at 340 nm. Type of test: biochemical. The protocol:
For DOXPR analysis, the compounds were screened using a kinetic protocol that spectrophotometrically evaluates oxidation of NADPH.
Stock solutions of each of the reagents were prepared in the following concentrations. Dilutions of the stock solutions were prepared prior to running the assay in the concentrations indicated below. DOXPR was diluted in 10 mM HEPES at a pH of 7.4.
The DOXPR reaction was monitored at 340 nm prior to and after addition of the inhibitor to detect background reaction with the inhibitor. Solutions of the inhibitors in DMSO were prepared to provide a final DMSO concentration of 5% of the total assay volume. These solutions were incubated for 6 minutes at 25° C. in a 990 μl of a solution containing 0.1 M HEPES, pH 7.4, 1 mM MnCl21.15 mM DOXP, and 8 μM NADPH. The oxidation reaction was then initiated with 10 μl of DOXP reductoisomerase (10 μg/ml). After the enzyme was added, the solution was mixed for 20 seconds, and the reaction was run for 10 minutes. After a 50 second lag, the samples were read in a Cary spectrophotometer at 340 nm. Reading of the samples was continued until 300 seconds. Cuvette #1 contained the control reaction (no inhibitor), and cuvette #2 contained the positive control reaction in which Cibacron Blue at 10.32 μM was substituted for inhibitor to yield 70 to 80% inhibition. The substrate was kept at a level at least 10 times the Km.

Among the data in US20030104473A1, “Common ligand mimics: benzimidazoles” (priority 2001, published 2003) are IC50 values, retold here.

Where two headings read alike, the source gives them in different places. A value given as a limit tells only on which side of the number the result lay.

1-deoxy-D-xylulose-5-phosphate reductase (DOXPR), sequence (P45568 whole entry): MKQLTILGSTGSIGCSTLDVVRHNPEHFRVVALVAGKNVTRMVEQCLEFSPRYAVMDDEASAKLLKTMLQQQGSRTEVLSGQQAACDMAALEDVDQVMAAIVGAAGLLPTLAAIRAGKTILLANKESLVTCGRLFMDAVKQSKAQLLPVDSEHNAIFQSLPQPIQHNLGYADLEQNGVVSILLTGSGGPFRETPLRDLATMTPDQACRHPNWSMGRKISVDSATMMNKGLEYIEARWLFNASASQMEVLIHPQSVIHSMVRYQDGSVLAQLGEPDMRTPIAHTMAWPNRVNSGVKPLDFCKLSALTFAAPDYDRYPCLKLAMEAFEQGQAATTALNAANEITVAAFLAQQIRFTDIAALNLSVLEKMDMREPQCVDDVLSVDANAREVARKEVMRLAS
dihydrofolate reductase (DHFR), sequence (P00374 whole entry): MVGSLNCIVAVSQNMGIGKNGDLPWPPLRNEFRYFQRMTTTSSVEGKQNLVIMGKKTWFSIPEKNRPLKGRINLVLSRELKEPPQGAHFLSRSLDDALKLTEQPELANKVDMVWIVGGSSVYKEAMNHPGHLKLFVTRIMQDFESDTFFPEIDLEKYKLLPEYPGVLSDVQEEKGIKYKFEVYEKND

As usually defined, the IC50 is the midpoint of a concentration-inhibition curve. `O=C(O)c1ccc(-c2ccc(-c3nc4ccccc4[nH]3)o2)cc1` [compound 6b, 4-[5-(1H-benzoimidazol-2-yl)-furan-2-yl] benzoic acid]: the IC50 is 49 µM in test [1]; over 40 µM in test [2] (Example 13 oxidoreductase panel (FIG. 7); read-out: IC50 for DHFR); over 60 µM in test [3] (Example 13 oxidoreductase panel (FIG. 7), read-out: IC50 for DOXPR).
In the case of `O=C(O)c1ccc(-c2ccc(-c3nc4cc([N+](=O)[O-])ccc4[nH]3)o2)cc1` [compound 6d, 4-[5-(5-nitro-1H-benzoimidazol-2-yl)-furan-2-yl]-benzoic acid], the IC50 in test [1] was over 150 µM; in test [2] (read-out: IC50 for DHFR; Example 13 oxidoreductase panel (FIG. 7)), 48.5 µM; in test [3], 21.4 µM.
